Laboratory results as given in article PMC9427925, “The measurement of binding affinities by NMR chemical shift perturbation” (Journal of Biomolecular Nmr, 2022).

Target: T1, HisJ (Escherichia coli, UniProt P0AEU0)
T1 construct: HisJ (241 residues)
Assay: […] HSQC/TROSY NMR chemical shift perturbation titration, global fit of all 1H and […] shifts
Type: binding

T1 sequence (P0AEU0 23-260): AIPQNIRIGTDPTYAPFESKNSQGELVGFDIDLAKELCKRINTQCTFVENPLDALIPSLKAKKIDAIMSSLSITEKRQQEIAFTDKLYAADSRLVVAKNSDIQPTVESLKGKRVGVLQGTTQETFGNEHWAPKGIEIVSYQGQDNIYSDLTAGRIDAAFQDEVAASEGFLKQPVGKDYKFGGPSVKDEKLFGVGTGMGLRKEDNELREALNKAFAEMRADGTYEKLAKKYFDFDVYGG

In the case of `NCCCC[C@H](N)C(=O)O` [lysine], the Kd is reported as 55.3 ± 0.4 µM.
